Three molecules from US8822458B2, “Substituted oxazolidinones and their use in the field of blood coagulation” (Bayer Intellectual Property GmbH, priority 1999, dated 2014) can be followed below.

Each structure is given as a SMILES string.

For experiment [1], the target named is human factor Xa (FXa) (Homo sapiens (Human), UniProt P00742). Nature of the experiment: Determination of the factor Xa inhibition (chromogenic substrate). The experiment is classed as biochemical. The protocol: Factor Xa cleaves p-nitroaniline from the chromogenic substrate. The determinations were carried out in microtitre plates as follows.
The test substances, in various concentrations, were dissolved in DMSO and incubated at 25° C. with human FXa (0.5 nmol/l dissolved in 50 mmol/l of tris buffer [C,C,C-tris(hydroxymethyl)-aminomethane], 150 mmol/l of NaCl, 0.1% BSA (bovine serum albumin), pH=8.3) for 10 minutes. Pure DMSO was used as control. The chromogenic substrate (150 μmol 11 of Pefachrome® FXa from Pentapharm) was then added.

Experiment [2] concerns thrombus formation in arteriovenous shunt. Nature of the experiment: Arteriovenous shunt model (rat), antithrombotic activity. In kind it is in vivo. The settings on record: po, read-out: ED50 [mg/kg] p.o. The protocol:
b) Determination of the Antithrombotic Activity (In Vivo) b.1) Arteriovenous Shunt Model (Rat) Fasting male rats (strain: HSD CPB:WU) having a weight of 200-250 g were anaesthetized using a Rompun/Ketavet solution (12 mg/kg/50 mg/kg). Thrombus formation was initiated in an arteriovenous shunt in accordance with the method described by Christopher N. Berry et al., Br. J. Pharmacol. (1994), 113, 1209-1214. To this end, the left jugular vein and the right carotid artery were exposed. The two vessels were connected by an extracorporeal shunt using a polyethylene tube (PE 60) of a length of 10 cm. […] The extracorporeal circulation was maintained for 15 minutes. The shunt was then removed and the nylon thread with the thrombus was weighed immediately. The weight of the nylon thread on its own had been determined before the experiment was started. Before the extracorporeal circulation was set up, the test substances were administered to the animals while awake either intravenously via the tail vein or orally using a pharyngeal tube.

human factor Xa (FXa), sequence (P00742 235-488): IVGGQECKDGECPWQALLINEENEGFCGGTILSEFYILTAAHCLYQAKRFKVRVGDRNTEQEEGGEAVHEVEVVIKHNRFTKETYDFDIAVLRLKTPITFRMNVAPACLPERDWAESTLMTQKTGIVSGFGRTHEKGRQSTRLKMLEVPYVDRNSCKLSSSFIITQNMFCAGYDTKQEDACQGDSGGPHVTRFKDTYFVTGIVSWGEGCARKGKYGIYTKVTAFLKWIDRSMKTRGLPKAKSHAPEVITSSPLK
human factor Xa (FXa), sequence (P00742 41-179 partner): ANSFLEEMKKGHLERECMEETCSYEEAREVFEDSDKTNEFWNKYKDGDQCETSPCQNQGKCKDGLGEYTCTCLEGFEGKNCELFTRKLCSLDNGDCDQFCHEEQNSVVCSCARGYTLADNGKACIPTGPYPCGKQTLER

A word on the IC50: it is the point on the concentration scale where inhibition reaches its midpoint. Read a high IC50 as lower potency. `O=C(NC[C@H]1CN(c2ccc(N3CCN(C(=O)CO)CC3)c(F)c2)C(=O)O1)c1ccc(Cl)s1` [Example 48]: the IC50 in experiment [1] (human FXa, table of Examples 48-57) worked out at 0.12 µM.
In turn, `O=C(NC[C@H]1CN(c2ccc(S(=O)(=O)N3CCC3)cc2)C(=O)O1)c1ccc(Cl)s1` [Example 39, 5-Chloro-N-({(5S)-3-[4-(1-azetidinylsulphonyl)phenyl]-2-oxo-1,3-oxazolidin-5-yl}methyl)-2-thiophenecarboxannide] yielded a 50% inhibitory concentration (IC50) in experiment [1] (human FXa 0.5 nmol/l, Pefachrome FXa substrate, 25° C., value printed in example text) of 0.84 µM.
Turning to `O=C(NC[C@H]1CN(c2ccc(N3CCOCC3=O)cc2)C(=O)O1)c1ccc(Cl)s1` [Example 44, 5-Chloro-N-({(5S)-2-oxo-3-[4-(3-oxo-4-morpholinyl)phenyl]-1,3-oxazolidin-5-yl}methyl)-2-thiophenecarboxamide], the ED50 in experiment [2] was 3 mg/kg.
